ChEMBL document CHEMBL1201862, “PubChem BioAssay data set” (2004)
The source made the active and inactive calls.

How the values were obtained:
[1] = target: E3 ubiquitin-protein ligase Mdm2/Protein Mdm4 (Homo sapiens, UniProt O15151+Q00987); assay: disruption of Mdm2/MdmX protein binding – luminescence detection, dose response (AID 504593); type: functional
[2] = Trypanosoma cruzi growth suppression in host cells – NIH3T3 host cells, beta-gal luminescence, confirmation (AID 2044); type: functional, cell-based;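 note: intracellular parasites grown in NIH/3T3 mouse fibroblasts as host cells; luminescent beta-galactosidase reporter signal from transgenic T. cruzi replicating inside host cells; inhibitors lower the luminescence signal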
[3] = target: T1, Ubiquitin-conjugating enzyme E2 N (Homo sapiens, UniProt P61088); type: functional;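 note: Dose-response confirmation in a TR-FRET assay detecting UBC13-driven polyubiquitin chain formation, inhibition measured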
T1 sequence (P61088 whole entry): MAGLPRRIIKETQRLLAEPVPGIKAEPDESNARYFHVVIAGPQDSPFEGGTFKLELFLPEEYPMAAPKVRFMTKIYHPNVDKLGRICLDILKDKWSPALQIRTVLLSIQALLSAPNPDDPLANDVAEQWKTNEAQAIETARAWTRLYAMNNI

[4] = NIH3T3 cell viability loss – ATP luminescence, mouse fibroblasts, counter-screen, dose response (AID 2010); type: functional, cell-based;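 note: cells exposed to compound for about 90 hours before reading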
[5] = HepG2 cell cytotoxicity, dose response, cytotoxicity control for non-replicating M. tuberculosis project (AID 489018); type: functional; settings: Mycobacterium tuberculosis
[6] = system: Streptococcus; assay: GAS UMAA2166 growth inhibition – luminescence, BacTiterGlo, counter-screen for streptokinase expression inhibitor project, dose response (AID 1915); type: functional, organism-based;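 note: potency for reduction of bacterial viability or growth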
[7] = target: Protein Wnt-3a (Mus musculus, UniProt P27467); assay: antagonism of Wnt3a pathway luciferase reporter – Wnt-LIGHT cells, luminescence, selectivity assay for Gli-SUFU antagonist project, dose response (AID 651570); type: functional; settings: read-out: IC50_Mean;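 note: Wnt-LIGHT reporter cells stimulated with conditioned medium from Wnt3a-producing cells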
[8] = THP-1 cell cytotoxicity, dose response, cytotoxicity control for non-replicating M. tuberculosis project (AID 489025); type: functional
[9] = cells; type: functional
[10] = target: T2, Microphthalmia-associated transcription factor (Homo sapiens, UniProt O75030); assay: reducers of TRPM1 reporter luminescence, concentration series – cell-based, SK-MEL-5, cherry-picked, set 3, MITF inhibitor project, dose response (AID 493073); type: functional;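 note: SK-MEL-5 melanoma cells with luciferase driven by the MITF target TRPM1 promoter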
T2 sequence (O75030 whole entry): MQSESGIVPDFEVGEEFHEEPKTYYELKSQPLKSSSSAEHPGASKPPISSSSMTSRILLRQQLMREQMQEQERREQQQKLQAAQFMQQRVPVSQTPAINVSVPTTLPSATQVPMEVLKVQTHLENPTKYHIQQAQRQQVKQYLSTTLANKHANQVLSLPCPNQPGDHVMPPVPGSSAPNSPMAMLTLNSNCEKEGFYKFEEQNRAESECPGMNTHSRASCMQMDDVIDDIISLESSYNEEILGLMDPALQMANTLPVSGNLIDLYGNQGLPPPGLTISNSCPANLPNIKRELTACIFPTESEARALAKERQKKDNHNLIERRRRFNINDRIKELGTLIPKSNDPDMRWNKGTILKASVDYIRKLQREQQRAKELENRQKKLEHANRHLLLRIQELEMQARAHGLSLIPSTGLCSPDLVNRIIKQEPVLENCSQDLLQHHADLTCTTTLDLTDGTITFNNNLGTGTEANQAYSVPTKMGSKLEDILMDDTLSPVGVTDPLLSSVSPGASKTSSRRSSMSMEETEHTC

[11] = system: Streptococcus sp. 'group A'; assay: Streptococcus pyogenes SK(-)GAS viability under kanamycin – luminescence, BacTiterGlo, confirmation, counter-screen for streptokinase expression inhibitor project, dose response (AID 1900); type: functional, organism-based
[12] = Vero E6 cell cytotoxicity, dose response, cytotoxicity control for non-replicating M. tuberculosis project, secondary assay (AID 492998); type: functional, VeroE6; settings: Vero C1008
[13] = target: G-protein coupled receptor 55 (Homo sapiens, UniProt Q9Y2T6); assay: inhibition of LPI-stimulated GPR55 beta-arrestin translocation – imaging, U2OS, beta-arrestin-GFP, LPI agonist, primary screen (AID 2013); type: functional;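 note: antagonist potency measured as reduced agonist-driven arrestin aggregation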
[14] = NIH/3T3 cell viability loss – mouse embryonic fibroblasts, dry powder, set 2, cytotoxicity control, dose response (AID 493247); type: functional, cell-based; settings: Fibroblast
[15] = system: Trypanosoma cruzi; assay: anti-trypanosomal activity in host cells – cell-based, plate reader, dry powder, set 3, dose response (AID 493197); type: functional
[16] = target: Nucleotide-binding oligomerization domain-containing protein 2 (Homo sapiens, UniProt Q9HC29); assay: inhibition of NOD2-driven NF-kB reporter – cell-based, luminescence, uHTS, HEK293 (AID 1566); type: functional
[17] = system: HEK293; assay: cells; type: functional, cell-based; settings: Homo sapiens
[18] = system: HEK293; assay: cells; type: functional, cell-based; settings: Homo sapiens; remark: listed apart in the source
[19] = system: HEK293; assay: cells; type: functional, cell-based; settings: Homo sapiens; remark: listed apart in the source
[20] = system: HEK293; assay: inhibition of NOD1-driven NF-kB reporter – cell-based, luminescence, uHTS, primary screen (AID 1578); type: functional; settings: Homo sapiens
[21] = system: HEK293; assay: NOD2 signaling inhibitors in MDP-stimulated cells, cell-based, uHTS, luminescence (AID 2001); type: functional; settings: Homo sapiens
[22] = target: T3, Type-1 angiotensin II receptor (Homo sapiens, UniProt P30556); assay: agonist activity at AGTR1 – cell-based, uHTS hits, selectivity assay for APJ receptor agonist project, dose response (AID 488865); type: functional;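 note: beta-arrestin recruitment to AT1 measured by enzyme fragment complementation luminescence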
T3 sequence (P30556 whole entry): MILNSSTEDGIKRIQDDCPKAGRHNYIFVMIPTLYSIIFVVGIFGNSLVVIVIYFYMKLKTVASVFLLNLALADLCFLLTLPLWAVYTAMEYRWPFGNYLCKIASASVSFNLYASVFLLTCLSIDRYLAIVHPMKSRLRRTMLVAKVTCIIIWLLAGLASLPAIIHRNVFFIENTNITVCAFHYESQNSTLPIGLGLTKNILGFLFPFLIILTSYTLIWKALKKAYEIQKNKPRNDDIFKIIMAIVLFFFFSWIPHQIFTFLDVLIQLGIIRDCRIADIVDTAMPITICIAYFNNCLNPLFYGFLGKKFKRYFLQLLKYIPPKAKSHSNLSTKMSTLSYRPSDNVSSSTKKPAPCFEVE

Sequence of G-protein coupled receptor 55 (Q9Y2T6 whole entry): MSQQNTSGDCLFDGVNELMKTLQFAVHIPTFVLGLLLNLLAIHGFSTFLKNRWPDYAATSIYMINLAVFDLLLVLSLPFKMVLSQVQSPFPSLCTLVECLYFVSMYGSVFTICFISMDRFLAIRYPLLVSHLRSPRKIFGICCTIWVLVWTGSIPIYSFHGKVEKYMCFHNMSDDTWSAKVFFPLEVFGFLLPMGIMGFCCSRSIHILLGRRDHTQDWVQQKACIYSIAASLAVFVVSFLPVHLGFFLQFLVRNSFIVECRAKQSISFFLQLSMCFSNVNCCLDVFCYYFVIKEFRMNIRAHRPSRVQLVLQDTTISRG
Sequence of Nucleotide-binding oligomerization domain-containing protein 2 (Q9HC29 whole entry, the tested form may be a part): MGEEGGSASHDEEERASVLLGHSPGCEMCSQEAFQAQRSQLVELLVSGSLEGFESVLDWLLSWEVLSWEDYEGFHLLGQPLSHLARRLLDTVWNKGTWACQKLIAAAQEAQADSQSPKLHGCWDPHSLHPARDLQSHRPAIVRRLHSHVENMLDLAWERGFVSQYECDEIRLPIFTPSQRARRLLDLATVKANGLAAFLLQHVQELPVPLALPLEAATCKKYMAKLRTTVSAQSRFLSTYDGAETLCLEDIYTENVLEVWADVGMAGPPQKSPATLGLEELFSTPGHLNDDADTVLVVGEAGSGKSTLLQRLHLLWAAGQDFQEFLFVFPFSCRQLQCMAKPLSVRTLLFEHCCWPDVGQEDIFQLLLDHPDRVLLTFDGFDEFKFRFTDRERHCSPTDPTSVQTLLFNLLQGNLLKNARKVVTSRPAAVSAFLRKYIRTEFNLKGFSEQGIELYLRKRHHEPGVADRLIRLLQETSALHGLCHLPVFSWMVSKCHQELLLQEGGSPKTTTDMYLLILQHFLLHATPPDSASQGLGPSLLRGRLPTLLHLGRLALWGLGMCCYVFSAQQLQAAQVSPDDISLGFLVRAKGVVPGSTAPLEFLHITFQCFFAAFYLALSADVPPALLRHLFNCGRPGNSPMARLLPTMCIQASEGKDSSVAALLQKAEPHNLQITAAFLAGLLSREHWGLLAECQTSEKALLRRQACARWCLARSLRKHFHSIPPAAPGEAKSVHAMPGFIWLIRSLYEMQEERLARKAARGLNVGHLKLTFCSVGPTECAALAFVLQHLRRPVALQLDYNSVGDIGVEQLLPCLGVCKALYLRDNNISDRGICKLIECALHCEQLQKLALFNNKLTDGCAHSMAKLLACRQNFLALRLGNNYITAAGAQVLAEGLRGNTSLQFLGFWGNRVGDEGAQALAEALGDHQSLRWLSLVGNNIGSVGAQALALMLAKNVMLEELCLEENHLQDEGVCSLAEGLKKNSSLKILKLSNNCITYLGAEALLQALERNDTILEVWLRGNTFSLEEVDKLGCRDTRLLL
Sequence of Protein Wnt-3a (P27467 whole entry): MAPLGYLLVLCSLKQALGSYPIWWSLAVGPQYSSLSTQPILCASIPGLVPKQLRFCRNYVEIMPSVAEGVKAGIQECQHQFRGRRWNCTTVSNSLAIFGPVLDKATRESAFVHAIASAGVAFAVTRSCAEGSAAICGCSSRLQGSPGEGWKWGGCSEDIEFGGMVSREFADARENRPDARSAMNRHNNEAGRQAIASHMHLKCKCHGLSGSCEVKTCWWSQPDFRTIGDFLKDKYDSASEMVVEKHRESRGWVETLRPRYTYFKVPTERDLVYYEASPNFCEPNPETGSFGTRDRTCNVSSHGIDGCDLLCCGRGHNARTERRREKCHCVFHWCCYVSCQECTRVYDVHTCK
Sequence of E3 ubiquitin-protein ligase Mdm2/Protein Mdm4 (Q00987 whole entry): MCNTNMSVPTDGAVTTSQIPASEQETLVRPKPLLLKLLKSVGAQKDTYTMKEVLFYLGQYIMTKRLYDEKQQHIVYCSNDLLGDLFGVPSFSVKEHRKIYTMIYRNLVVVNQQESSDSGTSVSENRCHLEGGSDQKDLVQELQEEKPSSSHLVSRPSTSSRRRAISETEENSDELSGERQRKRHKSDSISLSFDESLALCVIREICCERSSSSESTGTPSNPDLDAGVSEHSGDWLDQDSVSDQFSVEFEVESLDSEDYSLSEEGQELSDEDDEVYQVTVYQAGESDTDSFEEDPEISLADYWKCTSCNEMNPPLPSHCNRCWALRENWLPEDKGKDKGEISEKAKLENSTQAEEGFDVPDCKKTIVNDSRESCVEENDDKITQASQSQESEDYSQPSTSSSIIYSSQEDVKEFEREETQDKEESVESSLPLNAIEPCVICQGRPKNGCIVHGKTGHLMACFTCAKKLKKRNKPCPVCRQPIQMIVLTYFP
Sequence of E3 ubiquitin-protein ligase Mdm2/Protein Mdm4 (O15151 whole entry): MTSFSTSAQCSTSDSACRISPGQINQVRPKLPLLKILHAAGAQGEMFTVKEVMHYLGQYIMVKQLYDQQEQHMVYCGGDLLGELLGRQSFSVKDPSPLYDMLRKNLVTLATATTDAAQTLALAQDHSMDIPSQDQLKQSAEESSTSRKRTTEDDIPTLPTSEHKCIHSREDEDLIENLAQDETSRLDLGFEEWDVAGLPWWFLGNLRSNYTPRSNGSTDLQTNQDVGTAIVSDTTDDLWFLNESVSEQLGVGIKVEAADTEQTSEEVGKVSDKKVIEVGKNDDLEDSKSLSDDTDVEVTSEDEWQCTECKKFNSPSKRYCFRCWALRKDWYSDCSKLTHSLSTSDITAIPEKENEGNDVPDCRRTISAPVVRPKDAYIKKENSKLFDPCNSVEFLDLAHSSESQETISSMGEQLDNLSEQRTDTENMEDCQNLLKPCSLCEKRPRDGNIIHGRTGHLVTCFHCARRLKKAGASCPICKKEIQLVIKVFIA

With `COc1ccc(-c2cc3c(=O)n(CC(=O)NCCCN4CCC(N5CCCCC5)CC4)nc(C)n3n2)cc1` the IC50 [1] was 9.38 µM (active), the EC50 [2] was 3.09 µM (active) and the IC50 [3] was > 20 µM (inactive). For the same compound, the EC50 [4] was > 60 µM (not active).
In the case of `CCCCCCn1c(=O)c(C(=O)Nc2cnccn2)c(O)c2ccccc21`, the CC50 [5] is reported as 10.2 µM (active), the EC50 [6] is reported as 13 µM (active) and the IC50 [7] is reported as 3.55 µM (active). The CC50 [8] was 3.51 µM (active), the IC50 [9] was 5.03 µM (active) and the AC50 [10] was 3.68 µM (active). For the same compound, the EC50 [11] was 3 µM (active) and the CC50 [12] was 7.38 µM (active).
For `Cc1ccccc1CSCCNC(=O)c1ccc(N(C)S(=O)(=O)c2ccccc2)cc1`, the IC50 [13] was 3 µM (active).
In the case of `COc1ccc(CN2CCCC(C(=O)N3CCc4ccccc4C3)C2)cc1OC` (centres undefined), the AC50 [14] is reported as 41.7 µM (active) and the AC50 [15] is reported as 3.54 µM (active).
In the case of `C=CCn1c(O)c(N=NC(=S)Nc2cccc(OC)c2)c2ccccc21`, the EC50 [16] is reported as > 20 µM (inactive), the EC50 [2] is reported as 0.589 µM (active) and the IC50 [17] is reported as 3.41 µM (active). For the same compound, the IC50 [18] was > 20 µM (inactive), the IC50 [19] was > 20 µM (inactive) and the EC50 [20] was > 20 µM (inactive). For the same compound, the EC50 [4] was 4.49 µM (active) and the IC50 [21] was 1.76 µM (active).
With `COc1cc2c(cc1NC(=O)c1cc(-c3ccncc3)nc3ccc(C)cc13)oc1ccccc12` the EC50 [22] was > 100 µM (inactive).
